Data taken from patent US20200061054A1, “USE OF DIANHYDROGALACTITOL OR ANALOGS AND DERIVATIVES IN COMBINATION WITH A P53 MODULATOR OR A PARP INHIBITOR” (Del Mar Pharmaceuticals (BC) Ltd., priority 2017, published 2020).
Entries after “also recorded” stand apart in the source; their conditions may differ.

Key:
[1] = tested on: A2780 cells; experiment: 5-day MTT cytotoxic assay, combination of VAL-083 with non-DNA targeting agents (p53 modulators); assay type: cell-based; settings: for superadditivity / synergy in combination with VAL-083 (in words): A2780 (wild-type p53), 5-day MTT, agent combined with VAL-083, FIGS. 3-5
From the text: Additive effect of [drug A+drug B]=FaA+(1−FaA)FaB
where FaA or FaB=fraction of cells affected (Fa) by drug A or B alone. Data, where appropriate, are provided as Mean±SE of N=3 or greater.

[2] = tested on: p53-dependent response in A2780; experiment: Immunoblots 24 hr after drug exposure, p53-dependent response; assay type: cell-based; settings: A2780, in combination with VAL-083 (DAG), FIGS. 6A and 6B
Procedure: For Western blotting, cells were lysed in EBC buffer (50 mM Tris-HCl, pH 8.0, 120 mM NaCl, 1% NP-40, and 1 mM EDTA) supplemented with phosphatase inhibitor and protease inhibitor. Cellular proteins were separated by SDS-PAGE and transferred onto PVDF membrane. After incubation with blocking buffer for 1 h, the membranes were incubated with designated primary antibodies overnight at 4° C. Then, Membranes were washed three times for 10 min and incubated with horseradish peroxidase-conjugated anti-mouse or anti-rabbit antibodies for 1-2 h. Membranes were washed with TBST three times and developed with ECL system (Pierce) according to the manufacturer's instruction.

[3] = tested on: Ovarian A2780 tumor cells; experiment: 5-day MTT cytotoxicity, VAL-083 and/or PARP inhibitor, control siRNA cells (no BRCA1 kd); assay type: cell-based; settings: A2780, in combination with dianhydrogalactitol (VAL-083)
Procedure: (§1) Cytotoxicity was determined by MTT assay using the standard 5-day drug exposure protocol.
(§2) Ovarian A2780 tumor cells were treated with control or BRCA1 siRNA in 6-well plates and 24 hr later were washed, typsinized and aliquoted to 96-well plates. […] After 5 days, the cells are processed for the MTT assay.

[4] = tested on: A2780 cells with BRCA1 knockdown; experiment: 5-day MTT cytotoxicity, VAL-083 and/or PARP inhibitor, BRCA1-siRNA treated cells; settings: A2780, BRCA1 siRNA vs control siRNA, based on inspection of Fa data
Procedure: as §1, §2

[5] = tested on: ovarian cancer cell lines (A2780, A2780 p53-/-, 2780CP, OVCAR10, HEY, OVCA-433); settings: wild type p53, p53 knocked out and mutant p53 lines; previously shown; cited from earlier work

## Nc1cc(C(F)(F)F)c(-c2cc(N3CCOCC3)nc(N3CCOCC3)n2)cn1 [BKM120]
[1]
  superadditivity / synergy in combination with VAL-083 (in words): did not result in superadditive activity

## Cc1ncc(Cl)cc1NCc1ccc(C(=O)N[C@@H](CC2CCCC2)C(=O)NC2CC2)s1 [GSK2830371, (S)-5-(((5-Chloro-2-methylpyridin-3-yl)amino)methyl)-N-(3-cyclopentyl-1-(cyclopropylamino)-1-oxopropan-2-yl)thiophene-2-carboxamide]
[1]
  superadditivity / synergy in combination with VAL-083 (in words): substantial superadditivity and/or synergy
[2]
  upregulation of p53-dependent response (in words): synergistic upregulation of p53-dependent response

## Cc1sc2c(c1C)C(c1ccc(Cl)cc1)=N[C@@H](CC(=O)OC(C)(C)C)c1nnc(C)n1-2 [JQ1]
[1]
  superadditivity / synergy in combination with VAL-083 (in words): did not result in superadditive activity

## C=CCn1c(=O)c2cnc(Nc3ccc(N4CCN(C)CC4)cc3)nc2n1-c1cccc(C(C)(C)O)n1 [MK1775]
[1]
  superadditivity / synergy in combination with VAL-083 (in words): did not result in superadditive activity

## O=C(c1cc(Cc2n[nH]c(=O)c3ccccc23)ccc1F)N1CCN(C(=O)C2CC2)CC1 [Olaparib, olaparib]
[3]
  superadditivity of PARP inhibitor combined with VAL-083 (in words): super-additivity

## CNCc1ccc(-c2[nH]c3cc(F)cc4c3c2CCNC4=O)cc1 [Rucaparib, rucaparib]
[4]
  increase in cellular sensitivity by BRCA1 knockdown (kd): ~3.0 fold

## O[C@H]([C@H](O)[C@@H]1CO1)[C@H]1CO1 [VAL-083, dianhydrogalactitol]
[5]
  activity in ovarian cancer cell lines (in words): active in all cell lines tested

## C[C@]1(c2nc3c(C(N)=O)cccc3[nH]2)CCCN1 [Veliparib, veliparib]
[3]
  superadditivity of PARP inhibitor combined with VAL-083 (in words): not as effective

## COc1ccc(C2=N[C@@H](c3ccc(Cl)cc3)[C@@H](c3ccc(Cl)cc3)N2C(=O)N2CCNC(=O)C2)c(OC(C)C)c1 [nutlin-3a, 4-[[(4S,5R)-4,5-Bis(4-chlorophenyl)-2-(2-isopropoxy-4-methoxyphenyl)-4,5-dihydroimidazol-1-yl]carbonyl]piperazin-2-one]
[1]
  superadditivity / synergy in combination with VAL-083 (in words): substantial superadditivity and/or synergy; also recorded: augmented the activity of dianhydrogalactitol
[1]; A2780, nutlin-3a with VAL-083, range over ED75-ED95 (Table 3)
  combination index: 0.10-0.15
[2]
  upregulation of p53-dependent response (in words): synergistic upregulation of p53-dependent response
